The values that follow come from patent US20260053932A1, “COMPOUNDS AND METHODS FOR THE TARGETED DEGRADATION OF ANDROGEN RECEPTOR AND ASSOCIATED METHODS OF USE” (Arvinas Operations, Inc., priority 2020, published 2026).

The first assay deals with androgen receptor (AR) in LNCaP and/or VCaP cells. The experiment in a line: Androgen Receptor ELISA assay (AR degradation). The format is cell-based. As to conditions: LNCaP and/or VCaP cells; 5 hours incubation; media with R1881; read-out: DC50 Code* (degradation of AR ELISA). Summed up: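 VCaP cells grown ≥3 days, then treated 5 h with compound in media containing 1 nM R1881 (10× stock). Cells lysed and AR quantified by sandwich ELISA (mouse AR detection Ab, HRP anti-mouse, TMB). DC50 and Dmax derived from AR degradation.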
For orientation: In an ELISA, binding on a coated surface is turned into a signal by an enzyme label.
In the case of `COc1cc(O[C@@H]2CC[C@@H](NC(=O)c3cnc(N4CCC(CN(C(C)C)[C@H]5C[C@H](Oc6ccc7c(c6)C(=O)N(C6CCC(=O)NC6=O)C7=O)C5)CC4)cn3)C2)ccc1C#N` (stereo partly drawn) [Compound 10, N-((1R,3R)-3-(4-cyano-3-methoxyphenoxy)cyclopentyl)-5-(4-((((1r,3R)-3-((2-(2,6-dioxopiperidin-3-yl)-1,3-dioxoisoindolin-5-yl)oxy)cyclobutyl) (isopropyl)amino)methyl)piperidin-1-yl)pyrazine-2-carboxamide], the DC50 is greater than 100 nM.

For `CC1(N2C(=O)c3cc(F)c(N4CCN(CC5CCN(c6ccc(C(=O)N[C@H]7CC[C@H](Oc8ccc(C#N)c(Cl)c8)CC7)nn6)CC5)CC4)cc3C2=O)CCC(=O)NC1=O` (stereo partly shown) [Compound 69, N-((1r,4r)-4-(3-chloro-4-cyanophenoxy)cyclohexyl)-6-(4-((4-(6-fluoro-2-(3-methyl-2,6-dioxopiperidin-3-yl)-1,3-dioxoisoindolin-5-yl)piperazin-1-yl)methyl)piperidin-1-yl)pyridazine-3-carboxamide], the DC50 is less than 1 nM.

With `N#Cc1ccc(O[C@H]2CC[C@H](NC(=O)c3ccn(C4CCC(CN5CCN(c6ccc7c(c6)CN(C6CCC(=O)NC6=O)C7=O)CC5)CC4)n3)CC2)cc1Cl` (stereo partly shown) [Compound 71, N-((1r,4r)-4-(3-chloro-4-cyanophenoxy)cyclohexyl)-1-(4-((4-(2-(2,6-dioxopiperidin-3-yl)-1-oxoisoindolin-5-yl)piperazin-1-yl)methyl)cyclohexyl)-1H-pyrazole-3-carboxamide], the DC50 lay in the range of 1 to 10 nM.

Still in this assay, the particulars now being: degradation of AR ELISA in LNCaP and/or VCaP cells; Table 2C; read-out: DC50 Code*.
Take `COCCOCCOCCOCCOCCN(CC1CCN(c2ncc(C(=O)N[C@H]3C(C)(C)[C@H](Oc4cc(C)c(C#N)c(C)c4)C3(C)C)cn2)CC1)[C@H]1C[C@H](Oc2ccc3c(c2)C(=O)N(C2CCC(=O)NC2=O)C3=O)C1` (stereo partly shown) [compound 155, N-((1r,3r)-3-(4-cyano-3,5-dimethylphenoxy)-2,2,4,4-tetramethylcyclobutyl)-2-(4-(2-((1r,3r)-3-((2-(2,6-dioxopiperidin-3-yl)-1,3-dioxoisoindolin-5-yl)oxy)cyclobutyl)-5,8,11,14,17-pentaoxa-2-azaoctadecyl)piperidin-1-yl)pyrimidine-5-carboxamide]: the DC50 was less than 1 nM.

Turning to `Cc1cc(O[C@H]2C(C)(C)[C@H](NC(=O)c3cnc(N4CCC(CN(C(C)C)[C@H]5C[C@H](Oc6ccc7c(c6)C(=O)N(C6CCC(=O)NC6=O)C7)C5)CC4)cn3)C2(C)C)cc(C)c1C#N` (mixture of isomers) [compound 212, rac-N-((1r,3r)-3-(4-cyano-3,5-dimethylphenoxy)-2,2,4,4-tetramethylcyclobutyl)-5-(4-((((1r,3r)-3-((2-(2,6-dioxopiperidin-3-yl)-3-oxoisoindolin-5-yl)oxy)cyclobutyl) (isopropyl)amino)methyl)piperidin-1-yl)pyrazine-2-carboxamide], the DC50 is less than 1 nM.

As for `COCCN(CC1CCN(c2cnc(C(=O)N[C@H]3C(C)(C)[C@H](Oc4ccc(C#N)c(OC)c4)C3(C)C)cn2)CC1)[C@H]1C[C@H](Oc2ccc3c(c2)C(=O)N(C2CCC(=O)NC2=O)C3=O)C1` (stereo partly shown) [compound 116, N-((1r,3r)-3-(4-cyano-3-methoxyphenoxy)-2,2,4,4-tetramethylcyclobutyl)-5-(4-((((1r,3r)-3-((2-(2,6-dioxopiperidin-3-yl)-1,3-dioxoisoindolin-5-yl)oxy)cyclobutyl)(2-methoxyethyl)amino)methyl)piperidin-1-yl)pyrazine-2-carboxamide], the DC50 is less than 1 nM.

Turning to `COc1cc(O[C@H]2C(C)(C)[C@H](NC(=O)c3ccc(N4CCC(CN(CC(F)F)[C@H]5C[C@H](Oc6cc(OC)c7c(c6)C(=O)N(C6CCC(=O)NC6=O)C7=O)C5)CC4)cc3)C2(C)C)ccc1C#N` (stereo partly shown) [compound 235, N-((1r,3r)-3-(4-cyano-3-methoxyphenoxy)-2,2,4,4-tetramethylcyclobutyl)-4-(4-(((2,2-difluoroethyl)((1r,3r)-3-((2-(2,6-dioxopiperidin-3-yl)-7-methoxy-1,3-dioxoisoindolin-5-yl)oxy)cyclobutyl)amino)methyl)piperidin-1-yl)benzamide], the DC50 was less than 1 nM.

Consider `COc1cc(O[C@H]2C[C@H](N(CC3(F)CCN(c4ncc(C(=O)N[C@H]5C(C)(C)[C@H](Oc6cc(C)c(C#N)c(C)c6)C5(C)C)cn4)CC3)C(C)C)C2)cc2c1C(=O)N(C1CCC(=O)NC1=O)C2=O` (stereo partly shown) [compound 231, N-((1r,3r)-3-(4-cyano-3,5-dimethylphenoxy)-2,2,4,4-tetramethylcyclobutyl)-2-(4-((((1r,3r)-3-((2-(2,6-dioxopiperidin-3-yl)-7-methoxy-1,3-dioxoisoindolin-5-yl)oxy)cyclobutyl) (isopropyl)amino)methyl)-4-fluoropiperidin-1-yl)pyrimidine-5-carboxamide], for which the DC50 was less than 1 nM.

Consider `COCCN(CC1CCN(c2ccc(C(=O)N[C@H]3C(C)(C)[C@H](Oc4ccc(C#N)c(Cl)c4)C3(C)C)cc2)CC1)[C@H]1C[C@H](Oc2ccc3c(c2)C(=O)N(C2CCC(=O)NC2=O)C3=O)C1` (stereo partly shown) [compound 184, N-((1r,3r)-3-(3-chloro-4-cyanophenoxy)-2,2,4,4-tetramethylcyclobutyl)-4-(4-((((1r,3r)-3-((2-(2,6-dioxopiperidin-3-yl)-1,3-dioxoisoindolin-5-yl)oxy)cyclobutyl)(2-methoxyethyl)amino)methyl)piperidin-1-yl)benzamide], for which the DC50 is less than 1 nM.

With `[2H]C([2H])([2H])OCCN(CC1CCN(c2ccc(C(=O)N[C@H]3C(C)(C)[C@H](Oc4cc(C)c(C#N)c(C)c4)C3(C)C)cc2)CC1)[C@H]1C[C@H](Oc2cc(OC([2H])([2H])[2H])c3c(c2)C(=O)N(C2CCC(=O)NC2=O)C3=O)C1` (mixture of isomers) [compound 181, rac-N-((1r,3r)-3-(4-cyano-3,5-dimethylphenoxy)-2,2,4,4-tetramethylcyclobutyl)-4-(4-((((1r,3r)-3-((2-(2,6-dioxopiperidin-3-yl)-7-(methoxy-d3)-1,3-dioxoisoindolin-5-yl)oxy)cyclobutyl)(2-(methoxy-d3)ethyl)amino)methyl)piperidin-1-yl)benzamide], the DC50 was less than 1 nM.

Turning to `Cc1cc(O[C@H]2C(C)(C)[C@H](NC(=O)c3cnc(N4CCC(CN(CC(F)F)[C@H]5C[C@H](Oc6ccc7c(c6)CN(C6CCC(=O)NC6=O)C7=O)C5)CC4)nc3)C2(C)C)cc(C)c1C#N` (stereo partly shown) [compound 97, N-((1r,3r)-3-(4-cyano-3,5-dimethylphenoxy)-2,2,4,4-tetramethylcyclobutyl)-2-(4-(((2,2-difluoroethyl)((1r,3r)-3-((2-(2,6-dioxopiperidin-3-yl)-1-oxoisoindolin-5-yl)oxy)cyclobutyl)amino)methyl)piperidin-1-yl)pyrimidine-5-carboxamide], the half-maximal degradation concentration (DC50) is less than 1 nM.

Turning to `Cc1cc(O[C@H]2C(C)(C)[C@H](NC(=O)c3ccc(N4CCC(CN(C)[C@@H]5CC[C@@H](Oc6ccc7c(c6)C(=O)N(C6CCC(=O)NC6=O)C7=O)C5)CC4)cc3)C2(C)C)cc(C)c1C#N` (stereo partly drawn) [compound 161, N-((1r,3R)-3-(4-cyano-3,5-dimethylphenoxy)-2,2,4,4-tetramethylcyclobutyl)-4-(4-((((1R,3R)-3-((2-(2,6-dioxopiperidin-3-yl)-1,3-dioxoisoindolin-5-yl)oxy)cyclopentyl) (methyl)amino)methyl)piperidin-1-yl)benzamide], the DC50 is less than 1 nM.

Turning to `Cc1cc(O[C@H]2C(C)(C)[C@H](NC(=O)c3cnc(N4CC(CCN5CCC(Oc6ccc7c(c6)C(=O)N(C6CCC(=O)NC6=O)C7=O)CC5)C4)nc3)C2(C)C)cc(C)c1C#N` (stereo partly shown) [compound 133, N-((1r,3r)-3-(4-cyano-3,5-dimethylphenoxy)-2,2,4,4-tetramethylcyclobutyl)-2-(3-(2-(4-((2-(2,6-dioxopiperidin-3-yl)-1,3-dioxoisoindolin-5-yl)oxy)piperidin-1-yl)ethyl)azetidin-1-yl)pyrimidine-5-carboxamide], the DC50 was 1 to 10 nM.

Turning to `COc1cc(O[C@H]2C(C)(C)[C@H](NC(=O)c3cnc(N4CCC(CN(CC(F)F)[C@H]5C[C@H](Oc6cc(OC)c7c(c6)C(=O)N(C6CCC(=O)NC6=O)C7=O)C5)CC4)cn3)C2(C)C)ccc1C#N` (stereo partly shown) [compound 135, N-((1r,3r)-3-(4-cyano-3-methoxyphenoxy)-2,2,4,4-tetramethylcyclobutyl)-5-(4-(((2,2-difluoroethyl)((1r,3r)-3-((2-(2,6-dioxopiperidin-3-yl)-7-methoxy-1,3-dioxoisoindolin-5-yl)oxy)cyclobutyl)amino)methyl)piperidin-1-yl)pyrazine-2-carboxamide], the DC50 lay within 1 to 10 nM.

As to `COc1cc2c(cc1O[C@H]1C[C@H](N(CC3CCN(c4cnc(C(=O)N[C@H]5C(C)(C)[C@H](Oc6cc(C)c(C#N)c(C)c6)C5(C)C)cn4)CC3)C(C)C)C1)C(=O)N(C1CCC(=O)NC1=O)C2=O` (stereo partly shown) [Compound 199, N-((1r,3r)-3-(4-cyano-3,5-dimethylphenoxy)-2,2,4,4-tetramethylcyclobutyl)-5-(4-((((1r,3r)-3-((2-(2,6-dioxopiperidin-3-yl)-6-methoxy-1,3-dioxoisoindolin-5-yl)oxy)cyclobutyl)(isopropyl)amino)methyl)piperidin-1-yl)pyrazine-2-carboxamide], the DC50 was less than 1 nM.

Consider `COCCOCCOCCOCCN(CC1CCN(c2ncc(C(=O)N[C@H]3C(C)(C)[C@H](Oc4cc(C)c(C#N)c(C)c4)C3(C)C)cn2)CC1)[C@H]1C[C@H](Oc2ccc3c(c2)C(=O)N(C2CCC(=O)NC2=O)C3=O)C1` (stereo partly shown) [compound 145, N-((1r,3r)-3-(4-cyano-3,5-dimethylphenoxy)-2,2,4,4-tetramethylcyclobutyl)-2-(4-(2-((1r,3r)-3-((2-(2,6-dioxopiperidin-3-yl)-1,3-dioxoisoindolin-5-yl)oxy)cyclobutyl)-5,8,11,14-tetraoxa-2-azapentadecyl)piperidin-1-yl)pyrimidine-5-carboxamide], for which the DC50 was less than 1 nM.

The term DC50 denotes the concentration at which degradation of the target reaches its halfway point.
